In paper PMC12010006, “Subnanomolar MAS-related G protein-coupled receptor-X2/B2 antagonists with efficacy in human mast cells and disease models” (Signal Transduction and Targeted Therapy, 2025):

How the values were obtained:
[1] = biological target: T1, MRGPRX2 (Homo sapiens, UniProt Q96LB1); assay: β-arrestin assay (agonist mode), β-arrestin CHO cells recombinantly expressing MRGPRX2; type: cell-based; conditions: for EC50: agonist test, read-out: β-Arrestin assay EC50 ± SEM; for β-Arrestin assay % activation: normalized to CST-14 (EC80 5,000 nM)
T1 sequence (Q96LB1 1-330): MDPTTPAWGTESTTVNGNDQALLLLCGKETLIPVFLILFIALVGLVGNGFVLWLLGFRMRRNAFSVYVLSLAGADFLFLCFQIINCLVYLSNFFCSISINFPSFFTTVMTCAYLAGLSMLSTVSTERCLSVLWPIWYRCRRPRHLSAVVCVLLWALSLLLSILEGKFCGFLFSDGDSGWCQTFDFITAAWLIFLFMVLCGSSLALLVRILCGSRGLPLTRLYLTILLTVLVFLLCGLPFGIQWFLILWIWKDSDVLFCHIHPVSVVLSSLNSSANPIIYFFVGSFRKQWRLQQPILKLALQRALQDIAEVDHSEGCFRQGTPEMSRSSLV
Description: Eurofins DiscoverX (Fremont, CA, USA) provided engineered Chinese hamster ovary (CHO) cells stably expressing β-arrestin-2 fused to a large β-galactosidase fragment (enzyme acceptor, EA). These CHO-K1-β-arrestin-2 cells were commercially available (93-0164). CHO-K1-β-arrestin-2 cells that additionally expressed MRGPRX1, -2, or -4 fused to the fragment ProLink™ (PK) were also purchased from the same company (93-0919C2, 93-0309C2, and 3-0541C2A, respectively). CHO cells expressing MRGPRX3 were generated as previously […].[31] The cells were grown in F-12 Ham Nutrient Mixture (Life Technologies) supplemented with 10% FBS, 100 U/mL of penicillin, 100 µg/mL of streptomycin (PAN-Biotech), 300 μg/mL of hygromycin B (PAN-Biotech), and 800 μg/mL of gentamicin (PAN-Biotech) at 37 °C and 5% CO2.).
The assays were carried out as previously described.[22] […] After 30 min of incubation at 37 °C and 5% CO2, Cortistatin-14 (CST-14, Bioscience, Bristol, United Kingdom) or another MRGPRX2 agonist that served as a standard agonist was added, and the mixture was incubated for 90 min at 37 °C and 5% CO2. Next, a detection reagent (50 µL, DiscoverX) was added, and the mixture was incubated at room temperature in the dark for 60 min. Chemiluminescence was measured on a Mithras LB 940 plate reader (Berthold Technologies, Bad Wildbad, Germany). The results represent means ± SEM of three to five independent experiments, each in duplicates.
^d β-Arrestin CHO cells recombinantly expressing MRGPRX2
^f Percentage of activation of normalized to CST-14 (EC80 5,000 nM)

[2] = biological target: T1, MRGPRX2; assay: Ca2+ mobilization assay, LN229 cells overexpressing MRGPRX2; type: cell-based; design: expressed in transfected cells; host or cells: LN229 human glioblastoma cells; plasmid pLXSN-MRGPRX2 (Addgene #213960); conditions: for Ki: versus CST-14 (EC80 800 nM, EC50 452 nM), Cheng-Prusoff, read-out: Ca2+ assay Ki ± SEM
Experimental: Glioblastoma LN229-MRGPRX2 stably expressing MRGPRX2 (produced by retroviral transfection) were seeded into black sterile 96-well microplates at a density of 5 × 10^4 cells/well in 200 µL of DMEM/F12-Nut Mix medium, supplemented with 10% FCS, 100 U/mL of penicillin 100 µg/mL of streptomycin, and 200 µg/mL of G418 and incubated for 18–22 h.
The next day Fluo-4 AM Solution (1 mM) (Thermo Fisher Scientific) was prepared and used to prepare cell loading dye solution consisting of 4970 µL of Hank’s Buffered Saline Solution (HBSS) buffer, 15 µL of 20% Pluronic-F and 15 µL of 1 mM Fluo-4 AM. Next, the cell medium was removed and exchanged for 40 µL of dye solution per well (final concentration of Fluo-4 AM: 3 µM). The cell plate was incubated for 60 min in the dark at room temperature, then the dye solution was removed and replaced by 189 µL HBSS. Subsequently, 1 µL of antagonist diluted in DMSO was added and incubated for 30 min at room temperature and in the dark (final DMSO concentration 0.5%, v/v). CST-14 or another agonist prepared in HBSS as well as carbachol (final concentration 100 µM) were pipetted (10 µL) using a FlexStation® 3 Multi-Mode Microplate Reader. For the determination of baseline fluorescence, HBSS buffer containing solvent of the investigated compound was used. Fluorescence was measured for 120 intervals of 1 s (number of flashes: 10) at a wavelength of 525 nm (excitation 485 nm) using the SoftMax® Pro5.1 Microplate Data Acquisition & Analysis Software. Three independent experiments were performed in duplicates. Measurements are provided in relative fluorescence units and normalized to the maximal effect of CST-14.

SMILES | EC50 [1] [nM] | β-Arrestin assay % activation [1] [%] | fold higher potency compared to the 8-monofluorinated derivative (30) [2] | fold increase in potency compared to 10 [2] [fold] | fold increase in potency compared to hit compound 1 [2] [fold] | MRGPRX2 antagonistic potency in Ca2+ assay, in words ([2]; versus CST-14) | Ki [2] [nM] | agonistic activity in Ca2+ assays [2]
CCc1c(C(C)C)[nH]c2nc3cc(F)c(F)cc3n2c1=O [Compound 24, 3-ethyl-7,8-difluoro-2-isopropylbenzo[4,5]imidazo [1,2-a] pyrimidin-4(1H)-one] | > 10000 | -1 | about 4 fold | 7 | 1870 | subnanomolar potencies | 0.142 | 
CCCc1c(C)[nH]c2nc3ccccc3n2c1=O [Compound 1, 2-methyl-3-propylbenzo[4,5]imidazo[1,2-a]pyrimidin-4(1H)-one] | > 10000 | 1 |  |  |  |  | 246 ± 125 | did not show any agonistic activity
